From publication PMC5218480 (PLoS ONE, 2017)

Tested on: MV-4-11 cells
Assay: Gene expression microarray analysis (Affymetrix PrimeView) and GSEA
Assay type: cell-based, human
Parameters: RFU PODN (11730768_x_at) / Fold change /veh PODN (11730768_x_at) / RFU LINC00158 (11744669_a_at) / Fold change /veh LINC00158 (11744669_a_at) / RFU DUSP10 (11751237_a_at) / Fold change /veh DUSP10 (11751237_a_at) / RFU ID3 (11757404_x_at) / Fold change /veh ID3 (11757404_x_at) / RFU PLEKHG5 (11737974_s_at) / Fold change /veh PLEKHG5 (11737974_s_at) / RFU LRRC4B (11730491_at) / Fold change /veh LRRC4B (11730491_at) / RFU GIMAP4 (11747438_a_at) / Fold change /veh GIMAP4 (11747438_a_at) / RFU KRT8 (11758183_x_at) / Fold change /veh KRT8 (11758183_x_at) / RFU CNN1 (11734310_a_at) / Fold change /veh CNN1 (11734310_a_at) / RFU VPS37D (11726825_at) / Fold change /veh VPS37D (11726825_at) / RFU C10orf10 (11716522_x_at) / Fold change /veh C10orf10 (11716522_x_at) / RFU KIR2DL2 /// KIR2DL4 /// KIR2DL5A /// KIR2DL5B /// KIR2DS1 /// KIR2DS2 /// KIR2DS3 /// KIR2DS4 /// KIR3DL3 /// KIR3DL3 /// KIR3DS1 (11738374_at) / Fold change /veh KIR2DL2 /// KIR2DL4 /// KIR2DL5A /// KIR2DL5B /// KIR2DS1 /// KIR2DS2 /// KIR2DS3 /// KIR2DS4 /// KIR3DL3 /// KIR3DL3 /// KIR3DS1 (11738374_at) / RFU C1QL1 (11718748_at) / Fold change /veh C1QL1 (11718748_at) / RFU TMPRSS4 (11747572_a_at) / Fold change /veh TMPRSS4 (11747572_a_at) / RFU HAMP (11756126_x_at) / Fold change /veh HAMP (11756126_x_at) / RFU RNFT2 (11725882_a_at) / Fold change /veh RNFT2 (11725882_a_at) / RFU NR4A2 (11747474_a_at) / Fold change /veh NR4A2 (11747474_a_at) / RFU ABCC12 (11746883_a_at) / Fold change /veh ABCC12 (11746883_a_at) / RFU TMEM136 (11760407_x_at) / Fold change /veh TMEM136 (11760407_x_at) / RFU CLDN22 /// WWC2 (11732394_at) / Fold change /veh CLDN22 /// WWC2 (11732394_at) / RFU HLA-DPB1 (11760878_x_at) / Fold change /veh HLA-DPB1 (11760878_x_at) / RFU SPINT1 (11716480_a_at) / Fold change /veh SPINT1 (11716480_a_at) / RFU GAP43 (11754022_s_at) / Fold change /veh GAP43 (11754022_s_at) / RFU A4GNT (11735810_at) / Fold change /veh A4GNT (11735810_at) / RFU PRB3 (11715151_x_at) / Fold change /veh PRB3 (11715151_x_at) / RFU TUBB4B (11761932_at) / Fold change /veh TUBB4B (11761932_at) / RFU CAPN14 (11732068_a_at) / Fold change /veh CAPN14 (11732068_a_at) / RFU TMCC2 (11721928_a_at) / Fold change /veh TMCC2 (11721928_a_at) / RFU IRGQ (11745062_a_at) / Fold change /veh IRGQ (11745062_a_at) / RFU FAM174B (11720279_a_at) / Fold change /veh FAM174B (11720279_a_at) / RFU TMPRSS4 (11748680_a_at) / Fold change /veh TMPRSS4 (11748680_a_at) / RFU FAM212B (11763350_a_at) / Fold change /veh FAM212B (11763350_a_at) / RFU PLEKHG5 (11743358_a_at) / Fold change /veh PLEKHG5 (11743358_a_at) / RFU ZSCAN30 (11745921_a_at) / Fold change /veh ZSCAN30 (11745921_a_at) / RFU CMKLR1 (11741424_a_at) / Fold change /veh CMKLR1 (11741424_a_at) / RFU LOC101060620 /// MAPK8IP1 (11723275_at) / Fold change /veh LOC101060620 /// MAPK8IP1 (11723275_at) / RFU SPTSSB (11747773_x_at) / Fold change /veh SPTSSB (11747773_x_at) / RFU PRSS12 (11739890_at) / Fold change /veh PRSS12 (11739890_at) / RFU BIN1 (11741810_x_at) / Fold change /veh BIN1 (11741810_x_at) / RFU WNT11 (11732464_a_at) / Fold change /veh WNT11 (11732464_a_at) / RFU C10orf10 (11716521_a_at) / Fold change /veh C10orf10 (11716521_a_at) / RFU C5orf56 (11738089_at) / Fold change /veh C5orf56 (11738089_at) / RFU CYB561 (11721691_x_at) / Fold change /veh CYB561 (11721691_x_at) / RFU ANKRD19P (11752326_a_at) / Fold change /veh ANKRD19P (11752326_a_at) / RFU OR2T12 /// OR2T33 /// OR2T8 (11738714_s_at) / Fold change /veh OR2T12 /// OR2T33 /// OR2T8 (11738714_s_at) / RFU VCAN (11748164_a_at) / Fold change /veh VCAN (11748164_a_at) / RFU JSRP1 (11732532_at) / Fold change /veh JSRP1 (11732532_at) / RFU KRTAP10-11 (11738290_x_at) / Fold change /veh KRTAP10-11 (11738290_x_at) / RFU MYO3A (11730013_a_at) / Fold change /veh MYO3A (11730013_a_at) / RFU EBF3 (11725865_a_at) / Fold change /veh EBF3 (11725865_a_at) / RFU CAMK2N1 (11719241_x_at) / Fold change /veh CAMK2N1 (11719241_x_at) / RFU C5orf56 (11738088_a_at) / Fold change /veh C5orf56 (11738088_a_at) / RFU OLFML3 (11715873_a_at) / Fold change /veh OLFML3 (11715873_a_at) / RFU LOC100653217 /// NTM (11731650_a_at) / Fold change /veh LOC100653217 /// NTM (11731650_a_at) / RFU MAPK11 (11762145_a_at) / Fold change /veh MAPK11 (11762145_a_at) / RFU FIZ1 (11724087_x_at) / Fold change /veh FIZ1 (11724087_x_at) / RFU OASL (11726364_x_at) / Fold change /veh OASL (11726364_x_at) / RFU SOX15 (11748057_x_at) / Fold change /veh SOX15 (11748057_x_at) / RFU CD79A (11719716_a_at) / Fold change /veh CD79A (11719716_a_at) / RFU HIST1H1D (11736915_at) / Fold change /veh HIST1H1D (11736915_at) / RFU CASKIN2 (11723855_a_at) / Fold change /veh CASKIN2 (11723855_a_at) / RFU LOC730098 (11760151_x_at) / Fold change /veh LOC730098 (11760151_x_at) / RFU OR4N2 (11742367_at) / Fold change /veh OR4N2 (11742367_at) / RFU PRRT2 (11749266_a_at) / Fold change /veh PRRT2 (11749266_a_at) / RFU SNX32 (11753110_a_at) / Fold change /veh SNX32 (11753110_a_at) / RFU CDHR5 (11726645_a_at) / Fold change /veh CDHR5 (11726645_a_at) / RFU RCAN1 (11760418_a_at) / Fold change /veh RCAN1 (11760418_a_at) / RFU FAM167A (11723789_a_at) / Fold change /veh FAM167A (11723789_a_at) / RFU FAM26E (11764081_at) / Fold change /veh FAM26E (11764081_at) / RFU ISYNA1 (11749810_s_at) / Fold change /veh ISYNA1 (11749810_s_at) / RFU ACY1 (11761880_at) / Fold change /veh ACY1 (11761880_at) / RFU 11764098_at / Fold change /veh 11764098_at / RFU SAMD14 (11745864_x_at) / Fold change /veh SAMD14 (11745864_x_at) / RFU NPB (11741838_a_at) / Fold change /veh NPB (11741838_a_at) / RFU TMPRSS6 (11731388_a_at) / Fold change /veh TMPRSS6 (11731388_a_at) / RFU KRTAP10-2 (11738614_at) / Fold change /veh KRTAP10-2 (11738614_at) / RFU ARHGAP8 /// PRR5-ARHGAP8 (11727945_x_at) / Fold change /veh ARHGAP8 /// PRR5-ARHGAP8 (11727945_x_at) / RFU KRTAP5-7 /// NADSYN1 (11734609_at) / Fold change /veh KRTAP5-7 /// NADSYN1 (11734609_at) / RFU RASL12 (11751679_a_at) / Fold change /veh RASL12 (11751679_a_at) / RFU CDKN2B (11736163_a_at) / Fold change /veh CDKN2B (11736163_a_at) / RFU PRF1 (11729649_at) / Fold change /veh PRF1 (11729649_at) / RFU, ZNF638 /// ZNF638-IT1 / Fold change vs veh, ZNF638 /// ZNF638-IT1 / RFU, PANK3 / Fold change vs veh, PANK3 / RFU, SH3YL1 / Fold change vs veh, SH3YL1 / RFU, ZEB2 / Fold change vs veh, ZEB2 / RFU, NRIP1 / Fold change vs veh, NRIP1 / RFU, PTTG1IP / Fold change vs veh, PTTG1IP / RFU, CAPN2 / Fold change vs veh, CAPN2 / RFU, MED14 / Fold change vs veh, MED14 / RFU, SNORA58 / Fold change vs veh, SNORA58 / RFU, C1orf63 / Fold change vs veh, C1orf63 / RFU, LRRFIP1 / Fold change vs veh, LRRFIP1 / RFU, NDUFAF7 / Fold change vs veh, NDUFAF7 / RFU, SLC12A2 / Fold change vs veh, SLC12A2 / RFU, IBTK / Fold change vs veh, IBTK / RFU, ESF1 / Fold change vs veh, ESF1 / Fold change vs veh, TMEM50B / RFU, TAOK1 / Fold change vs veh, TAOK1 / RFU, ACBD3 / Fold change vs veh, ACBD3 / RFU, TMA16 / Fold change vs veh, TMA16 / RFU, RWDD3 / Fold change vs veh, RWDD3 / RFU, BCAT1 / Fold change vs veh, BCAT1 / RFU, EDEM3 / Fold change vs veh, EDEM3 / RFU, TMEM33 / Fold change vs veh, TMEM33 / RFU, WDR75 / Fold change vs veh, WDR75 / RFU, AHCTF1 / Fold change vs veh, AHCTF1 / RFU, TFRC / Fold change vs veh, TFRC / RFU, ZDHHC17 / Fold change vs veh, ZDHHC17 / RFU, NOM1 / Fold change vs veh, NOM1 / RFU, ARL8B / Fold change vs veh, ARL8B / RFU, ZBTB11 / Fold change vs veh, ZBTB11 / RFU, TAMM41 / Fold change vs veh, TAMM41 / RFU, KIAA1704 /// LOC100996395 / Fold change vs veh, KIAA1704 /// LOC100996395 / RFU, ING1 / Fold change vs veh, ING1 / RFU, TRMT61B / Fold change vs veh, TRMT61B / RFU, FUBP3 / Fold change vs veh, FUBP3 / RFU, TP53 / Fold change vs veh, TP53 / RFU, TNKS2 / Fold change vs veh, TNKS2 / RFU, ZFP14 / Fold change vs veh, ZFP14 / RFU, ACTR2 / Fold change vs veh, ACTR2 / RFU, PPP3R1 / Fold change vs veh, PPP3R1 / RFU, PIK3R1 / Fold change vs veh, PIK3R1 / RFU, HNRNPA1 / Fold change vs veh, HNRNPA1 / RFU, RNF170 / Fold change vs veh, RNF170 / RFU, ZNF28 / Fold change vs veh, ZNF28 / RFU, RNGTT / Fold change vs veh, RNGTT / RFU, OGT / Fold change vs veh, OGT / RFU, BRD1 / Fold change vs veh, BRD1 / RFU, MARS / Fold change vs veh, MARS / RFU, ZNF655 / Fold change vs veh, ZNF655 / RFU, FAHD1 / Fold change vs veh, FAHD1 / RFU, BDP1 / Fold change vs veh, BDP1 / RFU, LRRCC1 / Fold change vs veh, LRRCC1 / RFU, ARID1A / Fold change vs veh, ARID1A / RFU, ZNF146 / Fold change vs veh, ZNF146 / RFU, ZNF330 / Fold change vs veh, ZNF330 / RFU, GPN3 / Fold change vs veh, GPN3 / RFU, C9orf123 / Fold change vs veh, C9orf123 / RFU, N4BP2L2 / Fold change vs veh, N4BP2L2 / RFU, ARFIP1 / Fold change vs veh, ARFIP1 / RFU, FAM179B / Fold change vs veh, FAM179B / RFU, BCL10 / Fold change vs veh, BCL10 / RFU, UHRF1BP1L / Fold change vs veh, UHRF1BP1L / RFU, BET1 / Fold change vs veh, BET1 / RFU, CNOT2 / Fold change vs veh, CNOT2 / RFU, ZNF268 / Fold change vs veh, ZNF268 / Fold change vs veh, ZNF507 / RFU, DGCR2 / Fold change vs veh, DGCR2 / RFU, WDSUB1 / Fold change vs veh, WDSUB1 / Fold change vs veh, HSP90B1 /// MIR3652 / RFU, ADSS / Fold change vs veh, ADSS / RFU, GK / Fold change vs veh, GK / RFU, ZNF148 / Fold change vs veh, ZNF148 / RFU, TAF9 / Fold change vs veh, TAF9 / RFU, SLC1A5 / Fold change vs veh, SLC1A5 / RFU, SLMO2 / Fold change vs veh, SLMO2 / RFU, ABCC4 / Fold change vs veh, ABCC4 / RFU, LOC101060439 /// RAP1B / Fold change vs veh, LOC101060439 /// RAP1B / RFU, RFX7 / Fold change vs veh, RFX7 / RFU, GTPBP10 / Fold change vs veh, GTPBP10 / RFU, CNEP1R1 / Fold change vs veh, CNEP1R1 / RFU, BIVM-ERCC5 /// ERCC5 / Fold change vs veh, BIVM-ERCC5 /// ERCC5 / RFU, ILF3 / Fold change vs veh, ILF3 / RFU 11762660_at / Fold change /veh 11762660_at / RFU VCAN (11757783_s_at) / Fold change /veh VCAN (11757783_s_at) / RFU DDX43 (11728927_at) / Fold change /veh DDX43 (11728927_at) / RFU KRT8 (11758188_x_at) / Fold change /veh KRT8 (11758188_x_at) / RFU NKD1 (11759106_at) / Fold change /veh NKD1 (11759106_at) / RFU SRD5A1 (11742802_a_at) / Fold change /veh SRD5A1 (11742802_a_at) / RFU TPSAB1 /// TPSB2 (11721975_s_at) / Fold change /veh TPSAB1 /// TPSB2 (11721975_s_at) / RFU GSTM3 (11746129_a_at) / Fold change /veh GSTM3 (11746129_a_at) / RFU IL23R (11737362_x_at) / Fold change /veh IL23R (11737362_x_at) / RFU TMEM51 (11727254_a_at) / Fold change /veh TMEM51 (11727254_a_at) / RFU PIWIL2 (11732686_x_at) / Fold change /veh PIWIL2 (11732686_x_at) / RFU ORM1 (11744905_x_at) / Fold change /veh ORM1 (11744905_x_at) / RFU CCDC152 (11743942_at) / Fold change /veh CCDC152 (11743942_at) / RFU ECM1 (11717891_a_at) / Fold change /veh ECM1 (11717891_a_at) / RFU IL23R (11748794_a_at) / Fold change /veh IL23R (11748794_a_at) / RFU TNFAIP8L3 (11732012_x_at) / Fold change /veh TNFAIP8L3 (11732012_x_at) / RFU MBOAT4 (11741988_at) / Fold change /veh MBOAT4 (11741988_at) / RFU 11764193_at / Fold change /veh 11764193_at / RFU TMEM53 (11763286_at) / Fold change /veh TMEM53 (11763286_at) / RFU MAGEB2 (11727129_at) / Fold change /veh MAGEB2 (11727129_at) / RFU TMEM200A (11744735_a_at) / Fold change /veh TMEM200A (11744735_a_at) / RFU CCDC152 (11751479_a_at) / Fold change /veh CCDC152 (11751479_a_at) / RFU FAM211A (11726209_a_at) / Fold change /veh FAM211A (11726209_a_at) / RFU RGS16 (11746705_a_at) / Fold change /veh RGS16 (11746705_a_at) / RFU VCAN (11755009_s_at) / Fold change /veh VCAN (11755009_s_at) / RFU RHOB (11743442_s_at) / Fold change /veh RHOB (11743442_s_at) / RFU RGS16 (11720943_a_at) / Fold change /veh RGS16 (11720943_a_at) / RFU RGS16 (11720944_at) / Fold change /veh RGS16 (11720944_at) / RFU, VPS4B / Fold change vs veh, VPS4B / RFU, CREB1 / Fold change vs veh, CREB1 / RFU, DNAJC13 / Fold change vs veh, DNAJC13 / RFU, GNAQ / Fold change vs veh, GNAQ / RFU, CDK5R1 / Fold change vs veh, CDK5R1 / RFU, ZRANB3 / Fold change vs veh, ZRANB3 / RFU, CUL4A / Fold change vs veh, CUL4A / RFU, CCNY / Fold change vs veh, CCNY / RFU, UFL1 / Fold change vs veh, UFL1 / RFU, COG3 / Fold change vs veh, COG3 / RFU, DIAPH2 / Fold change vs veh, DIAPH2 / RFU, SKA2 / Fold change vs veh, SKA2 / RFU, AFF3 / Fold change vs veh, AFF3 / RFU, LMF1 / Fold change vs veh, LMF1 / RFU, IPO11 / Fold change vs veh, IPO11 / RFU, DFFB / Fold change vs veh, DFFB / RFU, FOXP1 / Fold change vs veh, FOXP1 / RFU, CARD8 / Fold change vs veh, CARD8 / RFU, STRN3 / Fold change vs veh, STRN3 / RFU, ADK / Fold change vs veh, ADK / RFU, RASSF2 / Fold change vs veh, RASSF2 / RFU, WIPF1 / Fold change vs veh, WIPF1 / RFU, LARP1B / Fold change vs veh, LARP1B / RFU, RASA1 / Fold change vs veh, RASA1 / RFU, RB1 / Fold change vs veh, RB1 / RFU, PPFIA1 / Fold change vs veh, PPFIA1 / RFU, MAT2A / Fold change vs veh, MAT2A / RFU, CCT5 / Fold change vs veh, CCT5 / RFU, WDR92 / Fold change vs veh, WDR92 / RFU, CUX1 / Fold change vs veh, CUX1 / RFU, TTC7A / Fold change vs veh, TTC7A / RFU, TMEM135 / Fold change vs veh, TMEM135 / RFU, DEPTOR / Fold change vs veh, DEPTOR / RFU, CPM / Fold change vs veh, CPM / RFU, DNAJB6 / Fold change vs veh, DNAJB6 / RFU, CACNA2D3 / Fold change vs veh, CACNA2D3 / RFU, DTX4 / Fold change vs veh, DTX4 / RFU, TFCP2 / Fold change vs veh, TFCP2 / RFU, GMCL1 /// GMCL1P1 / Fold change vs veh, GMCL1 /// GMCL1P1 / RFU, AEBP2 / Fold change vs veh, AEBP2 / RFU, SNHG1 /// SNORD22 /// SNORD25 /// SNORD26 /// SNORD27 /// SNORD28 /// SNORD29 /// SNORD31 / Fold change vs veh, SNHG1 /// SNORD22 /// SNORD25 /// SNORD26 /// SNORD27 /// SNORD28 /// SNORD29 /// SNORD31 / Fold change (Aza/veh), C12orf56 (ProbeSet 11735607_a_at) / Fold change (ACY-1035/veh), C12orf56 (ProbeSet 11735607_a_at) / Fold change (Aza/veh), FGFR1OP (ProbeSet 11751329_s_at) / Fold change (ACY-1035/veh), FGFR1OP (ProbeSet 11751329_s_at) / Fold change (Aza/veh), VPS36 (ProbeSet 11739960_a_at) / Fold change (ACY-1035/veh), VPS36 (ProbeSet 11739960_a_at) / RFU SYPL1 (11715823_x_at) / Fold change /veh SYPL1 (11715823_x_at) / RFU IGFBP7 (11715501_s_at) / Fold change /veh IGFBP7 (11715501_s_at) / RFU REEP3 (11722064_at) / Fold change /veh REEP3 (11722064_at) / RFU IGLL1 (11728026_x_at) / Fold change /veh IGLL1 (11728026_x_at): dose or concentration left out as unconfirmed
Details: MV-4-11 cells, 48 hours

In the case of `Nc1ncn([C@@H]2O[C@H](CO)[C@@H](O)[C@H]2O)c(=O)n1` [azacitidine], the “RFU RGS16 (11746705_a_at)” value is reported as 77.87 RFU.
